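Cultured in 96-well plates, cells were exposed to test compound for 48 hours across five concentrations. The concentration for 50% growth inhibition is given as GI50.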 Activity calls are given as the source filed them. Rule as the data show it: active = GI50 up to about 1.1 µM and inactive = higher.
Assays:
Assay in all cases: DTP human tumour cell line panel, 48 h
DU-145 = tested on: DU-145
SF-539 = tested on: SF-539
T47D = tested on: T47D
Hs-578T = tested on: Hs-578T
HOP-92 = tested on: HOP-92
MDA-N = tested on: MDA-N
OVCAR-8 = tested on: OVCAR-8
SF-268 = tested on: SF-268
SK-OV-3 = tested on: SK-OV-3
SNB-75 = tested on: SNB-75
MDA-MB-435 = tested on: MDA-MB-435
EKVX = tested on: EKVX
HCT-15 = tested on: HCT-15
A498 = tested on: A498
A549 = tested on: A549
TK-10 = tested on: TK-10
KM12 = tested on: KM12
U-251 = tested on: U-251
M14 = tested on: M14
NCI-H23 = tested on: NCI-H23
NCI-H522 = tested on: NCI-H522
SK-MEL-2 = tested on: SK-MEL-2
NCI-H226 = tested on: NCI-H226
SW-620 = tested on: SW-620
BT-549 = tested on: BT-549
SK-MEL-5 = tested on: SK-MEL-5
UACC-257 = tested on: UACC-257
OVCAR-4 = tested on: OVCAR-4
IGROV-1 = tested on: IGROV-1
COLO 205 = tested on: COLO 205
SK-MEL-28 = tested on: SK-MEL-28
NCI/ADR-RES = tested on: NCI/ADR-RES
MOLT-4 = tested on: MOLT-4
NCI-H460 = tested on: NCI-H460
HT-29 = tested on: HT-29
SN12C = tested on: SN12C
HCT-116 = tested on: HCT-116
RPMI-8226 = tested on: RPMI-8226
CAKI-1 = tested on: CAKI-1
Malme-3M = tested on: Malme-3M
LOX IMVI = tested on: LOX IMVI
PC-3 = tested on: PC-3
HOP-62 = tested on: HOP-62
HCC 2998 = tested on: HCC 2998
MCF7 = tested on: MCF7
ACHN = tested on: ACHN
OVCAR-3 = tested on: OVCAR-3
K562 = tested on: K562
786-0 = tested on: 786-0
SNB-19 = tested on: SNB-19
OVCAR-5 = tested on: OVCAR-5
UO-31 = tested on: UO-31
SR = tested on: SR
SF-295 = tested on: SF-295
RXF 393 = tested on: RXF 393
MDA-MB-231 = tested on: MDA-MB-231
UACC-62 = tested on: UACC-62
CCRF-CEM = tested on: CCRF-CEM

Q: With `O=C(N/N=C1\C(=O)Nc2ccc(Br)cc21)/C(O)=C/C(=O)c1ccc(Cl)cc1` as the compound, how does the GI50 (DU-145) read?
A: The GI50 was > 100 µM (inactive).

Q: What about the GI50 (SF-539) of the same compound?
A: Its GI50 is 71.3 µM (inactive).

Q: And the GI50 (T47D)?
A: Its GI50 is 36.6 µM (inactive).

Q: And the GI50 (Hs-578T)?
A: Its GI50 is 30.2 µM (inactive).

Q: What about the GI50 (HOP-92) of the same compound?
A: Its GI50 is 43.1 µM (inactive).

Q: And the GI50 (MDA-N)?
A: The GI50 was 39.3 µM (inactive).

Q: What about the GI50 (OVCAR-8) of the same compound?
A: The GI50 was 89.3 µM (inactive).

Q: And the GI50 (SF-268)?
A: Its GI50 is 36.4 µM (inactive).

Q: What about the GI50 (SK-OV-3) of the same compound?
A: The GI50 was 64.1 µM (inactive).

Q: What about the GI50 (SNB-75) of the same compound?
A: Its GI50 is 43.8 µM (inactive).

Q: And the GI50 (MDA-MB-435)?
A: The GI50 was 39.9 µM (inactive).

Q: What about the GI50 (EKVX) of the same compound?
A: Its GI50 is 45.8 µM (inactive).

Q: And the GI50 (HCT-15)?
A: The GI50 was 64.4 µM.

Q: And the GI50 (A498)?
A: Its GI50 is 26.8 µM (inactive).

Q: And the GI50 (A549)?
A: Its GI50 is > 100 µM (inactive).

Q: What about the GI50 (TK-10) of the same compound?
A: The GI50 was 50.4 µM (inactive).

Q: What about the GI50 (KM12) of the same compound?
A: The GI50 was > 100 µM (inactive).

Q: And the GI50 (U-251)?
A: Its GI50 is 43.6 µM (inactive).

Q: And the GI50 (M14)?
A: Its GI50 is > 100 µM (inactive).

Q: What about the GI50 (NCI-H23) of the same compound?
A: The GI50 was 71.9 µM (inactive).

Q: And the GI50 (NCI-H522)?
A: Its GI50 is 23.1 µM (inactive).

Q: What about the GI50 (SK-MEL-2) of the same compound?
A: The GI50 was 18.7 µM (inactive).

Q: What about the GI50 (NCI-H226) of the same compound?
A: The GI50 was 75.2 µM (inactive).

Q: What about the GI50 (SW-620) of the same compound?
A: The GI50 was 40.8 µM (inactive).

Q: What about the GI50 (BT-549) of the same compound?
A: The GI50 was 35.5 µM (inactive).

Q: And the GI50 (SK-MEL-5)?
A: Its GI50 is 57.5 µM (inactive).

Q: What about the GI50 (UACC-257) of the same compound?
A: The GI50 was > 100 µM (inactive).

Q: What about the GI50 (OVCAR-4) of the same compound?
A: The GI50 was > 100 µM (inactive).

Q: And the GI50 (IGROV-1)?
A: The GI50 was 75.9 µM (inactive).

Q: What about the GI50 (COLO 205) of the same compound?
A: Its GI50 is 86.5 µM (inactive).

Q: And the GI50 (SK-MEL-28)?
A: The GI50 was 51.6 µM (inactive).

Q: And the GI50 (NCI/ADR-RES)?
A: The GI50 was > 100 µM (inactive).

Q: And the GI50 (MOLT-4)?
A: Its GI50 is 0.0705 µM (active).

Q: And the GI50 (NCI-H460)?
A: The GI50 was > 100 µM (inactive).

Q: And the GI50 (HT-29)?
A: Its GI50 is > 100 µM (inactive).

Q: What about the GI50 (SN12C) of the same compound?
A: Its GI50 is 67.8 µM (inactive).

Q: And the GI50 (HCT-116)?
A: The GI50 was 47.1 µM (inactive).

Q: What about the GI50 (RPMI-8226) of the same compound?
A: Its GI50 is 19.4 µM (inactive).

Q: What about the GI50 (CAKI-1) of the same compound?
A: The GI50 was > 100 µM (inactive).

Q: And the GI50 (Malme-3M)?
A: Its GI50 is > 100 µM (inactive).

Q: What about the GI50 (LOX IMVI) of the same compound?
A: Its GI50 is 34 µM (inactive).

Q: And the GI50 (PC-3)?
A: The GI50 was 77.1 µM (inactive).

Q: What about the GI50 (HOP-62) of the same compound?
A: The GI50 was 54.6 µM (inactive).

Q: What about the GI50 (HCC 2998) of the same compound?
A: Its GI50 is 50.5 µM (inactive).

Q: And the GI50 (MCF7)?
A: The GI50 was 44.4 µM (inactive).

Q: And the GI50 (ACHN)?
A: Its GI50 is > 100 µM (inactive).

Q: And the GI50 (OVCAR-3)?
A: The GI50 was 22.4 µM (inactive).

Q: And the GI50 (K562)?
A: Its GI50 is 8.77 µM (inactive).

Q: What about the GI50 (786-0) of the same compound?
A: Its GI50 is 37.7 µM (inactive).

Q: And the GI50 (SNB-19)?
A: Its GI50 is 50.4 µM (inactive).

Q: What about the GI50 (OVCAR-5) of the same compound?
A: The GI50 was 97.5 µM (inactive).

Q: And the GI50 (UO-31)?
A: Its GI50 is > 100 µM (inactive).

Q: What about the GI50 (SR) of the same compound?
A: Its GI50 is < 0.01 µM (active).

Q: What about the GI50 (SF-295) of the same compound?
A: The GI50 was 54 µM (inactive).

Q: What about the GI50 (RXF 393) of the same compound?
A: The GI50 was 31.3 µM (inactive).

Q: What about the GI50 (MDA-MB-231) of the same compound?
A: Its GI50 is 45.5 µM (inactive).

Q: And the GI50 (UACC-62)?
A: Its GI50 is 44.3 µM (inactive).

Q: What does the source list for `Cc1cc(-c2nc3ccccc3s2)ccc1NC(=O)[C@@H](N)CCCCN`?
A: GI50 (DU-145): 12.5 µM (inactive); GI50 (T47D): < 0.0247 µM (active); GI50 (Hs-578T): 18.5 µM (inactive); GI50 (HOP-92): 16.1 µM (inactive); GI50 (MDA-N): 5.04 µM (inactive); GI50 (OVCAR-8): 6.78 µM (inactive); GI50 (SF-268): 6.07 µM (inactive); GI50 (SK-OV-3): 13.5 µM (inactive); GI50 (SNB-75): 3.68 µM (inactive); GI50 (MDA-MB-435): 5.24 µM (inactive); GI50 (EKVX): 12.2 µM (inactive); GI50 (HCT-15): 9.27 µM; GI50 (A498): 3.83 µM (inactive); GI50 (A549): 6.14 µM (inactive); GI50 (TK-10): 0.993 µM (active); GI50 (KM12): 2.82 µM (inactive); GI50 (U-251): 4.59 µM (inactive); GI50 (M14): 2.47 µM (inactive); GI50 (NCI-H23): 6.7 µM (inactive); GI50 (NCI-H522): 6.75 µM (inactive); GI50 (SK-MEL-2): 13.4 µM (inactive); GI50 (NCI-H226): 2.24 µM (inactive); GI50 (SW-620): 12.7 µM (inactive); GI50 (BT-549): 10.1 µM (inactive); GI50 (SK-MEL-5): 13.9 µM (inactive); GI50 (UACC-257): 18.4 µM (inactive); GI50 (OVCAR-4): 5.87 µM (inactive); GI50 (IGROV-1): 1.69 µM (inactive); GI50 (CCRF-CEM): 6.92 µM (inactive); GI50 (COLO 205): 12.4 µM (inactive); GI50 (SK-MEL-28): 15.3 µM (inactive); GI50 (NCI/ADR-RES): 15.8 µM (inactive); GI50 (MOLT-4): 6.58 µM (inactive); GI50 (NCI-H460): 2.22 µM (inactive); GI50 (HT-29): 7.16 µM (inactive); GI50 (SN12C): 16.8 µM (inactive); GI50 (HCT-116): 6.22 µM (inactive); GI50 (CAKI-1): 7.5 µM (inactive); GI50 (Malme-3M): 18.2 µM (inactive); GI50 (LOX IMVI): 2.03 µM (inactive); GI50 (PC-3): 14.3 µM (inactive); GI50 (HOP-62): 11.8 µM (inactive); GI50 (HCC 2998): 6.31 µM (inactive); GI50 (MCF7): < 0.0301 µM (active); GI50 (ACHN): 14.7 µM (inactive); GI50 (OVCAR-3): 12.9 µM (inactive); GI50 (K562): 7.01 µM (inactive); GI50 (786-0): 5.96 µM (inactive); GI50 (SNB-19): 12 µM (inactive); GI50 (OVCAR-5): 12.5 µM (inactive); GI50 (UO-31): 6.71 µM (inactive); GI50 (SR): 3.24 µM (inactive); GI50 (SF-295): 5.07 µM (inactive); GI50 (RXF 393): 3.89 µM (inactive); GI50 (MDA-MB-231): 9.04 µM (inactive); GI50 (UACC-62): 13.8 µM (inactive)

— ChEMBL document CHEMBL1201862, “PubChem BioAssay data set” (2004)
